Tests used:
H1 (h) = biological target: T1, H1 (h) (Homo sapiens, UniProt P35367); experiment: Receptor binding screen, [^3H]pyrilamine; conditions: 10 uM Concentration of Compound I-1-Z; read-out: Mean Value, percent inhibition of control specific binding: H1 (h)
T1 construct: expressed in transfected cells; host or cells: HEK-293 cells

sst (non-selective) = experiment: Receptor binding screen, [^125I]Tyr^11-somatostatin, AtT-20 cells; conditions: 10 uM Concentration of Compound I-1-Z
Experimental: For Table 4 below, the specific ligand binding to the receptors is defined as the difference between the total binding and the nonspecific binding determined in the presence of an excess of unlabelled ligand. The results are expressed as a percent inhibition of control specific binding obtained in the presence of Compound I-1-Z. The IC50 values (concentration causing a half-maximal inhibition of control specific binding) and Hill coefficients (nH) were determined by non-linear regression analysis of the competition curves using Hill equation curve fitting. The inhibition constants (Ki) were calculated from the Cheng Prusoff equation (Ki=IC50/(1+(L/KD)), where L=concentration of radioligand in the assay, and KD=affinity of the radioligand for the receptor). In each experiment, the respective reference compound was tested concurrently with Compound I-1-Z in order to assess the assay suitability.

5-HT2C (h) = biological target: T2, 5-HT2C (h) (Homo sapiens, UniProt P28335); experiment: Receptor binding screen, [^3H]mesulergine; conditions: 10 uM Concentration of Compound I-1-Z; read-out: Mean Value, percent inhibition of control specific binding: 5-HT2C (h)
T2 construct: expressed in transfected cells; host or cells: CHO cells
T2 sequence (P28335 33-458): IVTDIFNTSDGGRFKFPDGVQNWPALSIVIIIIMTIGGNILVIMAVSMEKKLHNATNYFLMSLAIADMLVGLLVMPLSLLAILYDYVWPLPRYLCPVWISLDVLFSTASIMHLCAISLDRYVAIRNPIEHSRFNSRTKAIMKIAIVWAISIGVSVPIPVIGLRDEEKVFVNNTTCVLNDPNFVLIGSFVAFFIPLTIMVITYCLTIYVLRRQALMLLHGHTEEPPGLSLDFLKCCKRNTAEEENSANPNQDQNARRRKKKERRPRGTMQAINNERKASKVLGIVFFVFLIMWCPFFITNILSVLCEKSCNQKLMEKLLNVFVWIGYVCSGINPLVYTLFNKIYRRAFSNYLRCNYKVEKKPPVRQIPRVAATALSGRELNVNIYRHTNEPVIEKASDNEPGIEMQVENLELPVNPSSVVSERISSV

BZD (central) = experiment: Receptor binding screen, [^3H]flunitrazepam; parameters: species or system rat; conditions: 10 uM Concentration of Compound I-1-Z
CXCR2 (h) (IL-8B) = biological target: T3, CXCR2 (h) (IL-8B) (Homo sapiens, UniProt P25025); experiment: Receptor binding screen, [^125I]IL-8; conditions: 10 uM Concentration of Compound I-1-Z; read-out: Mean Value, percent inhibition of control specific binding: CXCR2 (h) (IL-8B)
T3 construct: expressed in transfected cells; host or cells: HEK-293 cells
T3 sequence (P25025 whole entry): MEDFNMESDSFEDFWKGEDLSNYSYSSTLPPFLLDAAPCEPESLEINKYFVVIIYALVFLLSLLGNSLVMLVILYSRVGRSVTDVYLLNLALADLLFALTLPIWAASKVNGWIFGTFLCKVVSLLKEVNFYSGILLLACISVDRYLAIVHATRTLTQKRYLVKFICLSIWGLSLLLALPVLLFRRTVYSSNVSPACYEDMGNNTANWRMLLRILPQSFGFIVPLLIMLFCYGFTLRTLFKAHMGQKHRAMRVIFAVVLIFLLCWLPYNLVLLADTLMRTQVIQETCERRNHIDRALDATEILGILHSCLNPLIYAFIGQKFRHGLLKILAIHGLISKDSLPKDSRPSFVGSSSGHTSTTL

[1] = system: Ca^2+ channel (L, verapamil site) (phenylalkylamines); experiment: Receptor binding screen, [^3H](−)D 888; parameters: species or system rat; conditions: 10 uM Concentration of Compound I-1-Z
MT1 (h) = biological target: T4, MT1 (h) (Homo sapiens, UniProt P48039); experiment: Receptor binding screen, [^125I]iodomelatonin; conditions: 10 uM Concentration of Compound I-1-Z; read-out: Mean Value, percent inhibition of control specific binding: MT1 (h)
T4 construct: expressed in transfected cells; host or cells: CHO cells
T4 sequence (P48039 whole entry): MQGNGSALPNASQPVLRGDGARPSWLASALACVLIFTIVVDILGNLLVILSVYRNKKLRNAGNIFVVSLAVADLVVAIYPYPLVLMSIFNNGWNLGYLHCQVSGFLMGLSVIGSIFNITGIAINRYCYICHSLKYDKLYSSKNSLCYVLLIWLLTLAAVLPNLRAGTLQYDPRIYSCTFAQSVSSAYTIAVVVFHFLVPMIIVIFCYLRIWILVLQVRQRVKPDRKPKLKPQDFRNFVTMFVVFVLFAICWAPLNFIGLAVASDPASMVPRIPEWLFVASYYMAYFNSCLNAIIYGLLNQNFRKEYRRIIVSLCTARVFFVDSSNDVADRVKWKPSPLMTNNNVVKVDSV

D2S (h) = biological target: T5, D2S (h) (Homo sapiens, UniProt P14416); experiment: Receptor binding screen, [^3H]spiperone; conditions: 10 uM Concentration of Compound I-1-Z; read-out: Mean Value, percent inhibition of control specific binding: D2S (h)
T5 construct: expressed in transfected cells; host or cells: HEK-293 cells
T5 sequence (P14416 1-414 isoform P14416-2): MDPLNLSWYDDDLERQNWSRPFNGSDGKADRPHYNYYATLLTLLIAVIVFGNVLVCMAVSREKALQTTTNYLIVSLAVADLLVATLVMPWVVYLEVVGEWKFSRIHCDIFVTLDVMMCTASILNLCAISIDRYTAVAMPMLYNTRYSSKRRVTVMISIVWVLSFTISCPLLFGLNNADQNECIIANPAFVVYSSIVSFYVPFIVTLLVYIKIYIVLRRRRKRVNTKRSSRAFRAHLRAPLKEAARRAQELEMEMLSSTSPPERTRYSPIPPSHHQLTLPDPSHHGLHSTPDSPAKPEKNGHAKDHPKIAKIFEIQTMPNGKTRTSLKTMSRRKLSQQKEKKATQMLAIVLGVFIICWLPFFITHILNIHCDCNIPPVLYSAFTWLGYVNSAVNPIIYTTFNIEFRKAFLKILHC

P2Y = experiment: Receptor binding screen, [^35S]dATPαS; parameters: species or system rat; conditions: 10 uM Concentration of Compound I-1-Z
CCR1 (h) = biological target: T6, CCR1 (h) (Homo sapiens, UniProt P32246); experiment: Receptor binding screen, [^125I]MIP-1α; conditions: 10 uM Concentration of Compound I-1-Z; read-out: Mean Value, percent inhibition of control specific binding: CCR1 (h)
T6 construct: expressed in transfected cells; host or cells: HEK-293 cells
T6 sequence (P32246 whole entry): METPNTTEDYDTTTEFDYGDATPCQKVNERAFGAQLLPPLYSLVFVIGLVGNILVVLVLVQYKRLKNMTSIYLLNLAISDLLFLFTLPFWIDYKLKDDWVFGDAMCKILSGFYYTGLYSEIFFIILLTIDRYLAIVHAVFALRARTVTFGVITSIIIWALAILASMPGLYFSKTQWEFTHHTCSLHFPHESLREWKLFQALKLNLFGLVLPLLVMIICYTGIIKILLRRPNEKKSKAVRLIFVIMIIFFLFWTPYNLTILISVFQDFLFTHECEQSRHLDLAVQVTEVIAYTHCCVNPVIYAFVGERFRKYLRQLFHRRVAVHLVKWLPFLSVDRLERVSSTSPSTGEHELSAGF

H2 (h) = biological target: T7, H2 (h) (Homo sapiens, UniProt P25021); experiment: Receptor binding screen, [^125I]APT; conditions: 10 uM Concentration of Compound I-1-Z; read-out: Mean Value, percent inhibition of control specific binding: H2 (h)
T7 construct: expressed in transfected cells; host or cells: CHO cells
T7 sequence (P25021 whole entry): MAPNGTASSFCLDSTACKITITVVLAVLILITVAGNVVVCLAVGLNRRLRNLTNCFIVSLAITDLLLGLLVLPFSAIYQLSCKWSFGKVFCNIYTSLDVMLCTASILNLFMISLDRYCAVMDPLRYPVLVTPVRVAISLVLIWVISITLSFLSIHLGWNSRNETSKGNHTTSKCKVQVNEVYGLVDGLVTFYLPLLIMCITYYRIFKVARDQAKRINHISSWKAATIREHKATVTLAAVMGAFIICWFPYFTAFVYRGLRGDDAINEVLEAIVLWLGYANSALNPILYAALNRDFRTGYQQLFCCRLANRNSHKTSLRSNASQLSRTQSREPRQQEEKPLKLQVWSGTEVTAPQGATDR

β2 (h) = biological target: T8, β2 (h) (Homo sapiens, UniProt P07550); experiment: Receptor binding screen, [^3H](−)CGP 12177; conditions: 10 uM Concentration of Compound I-1-Z; read-out: Mean Value, percent inhibition of control specific binding: β2 (h)
T8 construct: expressed in transfected cells; host or cells: Sf9 cells
T8 sequence (P07550 whole entry): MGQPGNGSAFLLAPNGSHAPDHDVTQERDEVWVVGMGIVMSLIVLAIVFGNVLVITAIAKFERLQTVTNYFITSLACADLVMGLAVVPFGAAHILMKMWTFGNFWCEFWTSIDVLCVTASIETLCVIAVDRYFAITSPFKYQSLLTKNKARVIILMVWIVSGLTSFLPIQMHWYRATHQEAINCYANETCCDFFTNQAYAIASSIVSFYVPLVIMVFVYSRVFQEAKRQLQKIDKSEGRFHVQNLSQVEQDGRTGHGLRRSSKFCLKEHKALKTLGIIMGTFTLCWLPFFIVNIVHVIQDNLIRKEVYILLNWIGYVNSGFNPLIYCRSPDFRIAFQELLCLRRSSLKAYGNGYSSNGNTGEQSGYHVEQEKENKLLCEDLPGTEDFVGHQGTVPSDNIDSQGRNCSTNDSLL

D3 (h) = biological target: T9, D3 (h) (Homo sapiens, UniProt P35462); experiment: Receptor binding screen, [^3H]spiperone; conditions: 10 uM Concentration of Compound I-1-Z; read-out: Mean Value, percent inhibition of control specific binding: D3 (h)
T9 construct: expressed in transfected cells; host or cells: CHO cells
T9 sequence (P35462 whole entry): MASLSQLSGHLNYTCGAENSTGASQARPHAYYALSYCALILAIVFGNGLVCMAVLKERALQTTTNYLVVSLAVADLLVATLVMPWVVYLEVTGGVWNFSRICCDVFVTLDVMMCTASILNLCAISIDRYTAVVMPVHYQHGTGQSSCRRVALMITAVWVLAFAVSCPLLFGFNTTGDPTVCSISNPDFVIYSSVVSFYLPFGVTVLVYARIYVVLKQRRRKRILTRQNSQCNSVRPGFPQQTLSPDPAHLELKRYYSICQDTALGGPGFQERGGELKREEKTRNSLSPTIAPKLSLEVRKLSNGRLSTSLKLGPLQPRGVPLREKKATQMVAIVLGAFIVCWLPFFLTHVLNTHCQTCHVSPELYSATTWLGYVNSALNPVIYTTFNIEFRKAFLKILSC

β1 (h) = biological target: T10, β1 (h) (Homo sapiens, UniProt P08588); experiment: Receptor binding screen, [^3H](−)CGP 12177; conditions: 10 uM Concentration of Compound I-1-Z; read-out: Mean Value, percent inhibition of control specific binding: β1 (h)
T10 construct: expressed in transfected cells; host or cells: HEK-293 cells
T10 sequence (P08588 whole entry): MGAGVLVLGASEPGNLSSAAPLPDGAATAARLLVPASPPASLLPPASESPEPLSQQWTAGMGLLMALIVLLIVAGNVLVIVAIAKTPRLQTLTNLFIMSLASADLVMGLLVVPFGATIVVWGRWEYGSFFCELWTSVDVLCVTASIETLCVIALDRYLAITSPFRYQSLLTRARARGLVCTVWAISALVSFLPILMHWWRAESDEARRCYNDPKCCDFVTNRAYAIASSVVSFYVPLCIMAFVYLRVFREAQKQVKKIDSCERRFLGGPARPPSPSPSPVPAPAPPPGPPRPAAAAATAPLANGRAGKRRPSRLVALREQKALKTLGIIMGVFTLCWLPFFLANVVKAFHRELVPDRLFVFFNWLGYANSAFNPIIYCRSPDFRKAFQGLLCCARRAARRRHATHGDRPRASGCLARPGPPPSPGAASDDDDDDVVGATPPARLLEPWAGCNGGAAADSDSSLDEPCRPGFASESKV

5-HT5A (h) = biological target: T11, 5-HT5A (h) (Homo sapiens, UniProt P47898); experiment: Receptor binding screen, [^3H]LSD; conditions: 10 uM Concentration of Compound I-1-Z; read-out: Mean Value, percent inhibition of control specific binding: 5-HT5A (h)
T11 construct: expressed in transfected cells; host or cells: CHO cells
T11 sequence (P47898 whole entry): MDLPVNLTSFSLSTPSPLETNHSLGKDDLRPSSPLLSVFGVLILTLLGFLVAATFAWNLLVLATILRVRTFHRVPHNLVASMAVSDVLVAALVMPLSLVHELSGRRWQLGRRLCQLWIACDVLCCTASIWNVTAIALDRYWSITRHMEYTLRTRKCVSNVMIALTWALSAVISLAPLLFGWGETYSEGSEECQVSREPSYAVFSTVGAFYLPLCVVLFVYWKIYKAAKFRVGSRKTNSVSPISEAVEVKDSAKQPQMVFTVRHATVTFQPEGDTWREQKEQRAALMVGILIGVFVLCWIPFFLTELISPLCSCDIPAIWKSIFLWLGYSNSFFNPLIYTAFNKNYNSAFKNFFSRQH

K^+V channel = experiment: Receptor binding screen, [^125I]α-dendrotoxin; parameters: species or system rat; conditions: 10 uM Concentration of Compound I-1-Z
PDGF = experiment: Receptor binding screen, [^125I]PDGF BB, Balb/c 3T3 cells; conditions: 10 uM Concentration of Compound I-1-Z
PACAP (PAC1) (h) = biological target: T12, PACAP (PAC1) (h) (Homo sapiens, UniProt P41586); experiment: Receptor binding screen, [^125I]PACAP1-27; conditions: 10 uM Concentration of Compound I-1-Z; read-out: Mean Value, percent inhibition of control specific binding: PACAP (PAC1) (h)
T12 construct: expressed in transfected cells; host or cells: CHO cells
T12 sequence (P41586 21-468): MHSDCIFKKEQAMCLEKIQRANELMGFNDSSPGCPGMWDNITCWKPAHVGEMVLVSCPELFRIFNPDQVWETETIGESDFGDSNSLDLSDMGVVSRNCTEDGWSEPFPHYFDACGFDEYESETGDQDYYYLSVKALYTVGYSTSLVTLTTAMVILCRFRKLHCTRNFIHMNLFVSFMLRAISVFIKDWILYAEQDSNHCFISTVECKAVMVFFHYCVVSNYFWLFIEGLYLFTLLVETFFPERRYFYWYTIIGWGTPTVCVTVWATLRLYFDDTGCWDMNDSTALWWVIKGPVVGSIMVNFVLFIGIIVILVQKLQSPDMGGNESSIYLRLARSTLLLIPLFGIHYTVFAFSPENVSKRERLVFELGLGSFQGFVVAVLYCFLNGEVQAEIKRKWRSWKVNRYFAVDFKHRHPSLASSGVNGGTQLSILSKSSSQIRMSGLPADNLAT

T1 sequence (P35367 whole entry): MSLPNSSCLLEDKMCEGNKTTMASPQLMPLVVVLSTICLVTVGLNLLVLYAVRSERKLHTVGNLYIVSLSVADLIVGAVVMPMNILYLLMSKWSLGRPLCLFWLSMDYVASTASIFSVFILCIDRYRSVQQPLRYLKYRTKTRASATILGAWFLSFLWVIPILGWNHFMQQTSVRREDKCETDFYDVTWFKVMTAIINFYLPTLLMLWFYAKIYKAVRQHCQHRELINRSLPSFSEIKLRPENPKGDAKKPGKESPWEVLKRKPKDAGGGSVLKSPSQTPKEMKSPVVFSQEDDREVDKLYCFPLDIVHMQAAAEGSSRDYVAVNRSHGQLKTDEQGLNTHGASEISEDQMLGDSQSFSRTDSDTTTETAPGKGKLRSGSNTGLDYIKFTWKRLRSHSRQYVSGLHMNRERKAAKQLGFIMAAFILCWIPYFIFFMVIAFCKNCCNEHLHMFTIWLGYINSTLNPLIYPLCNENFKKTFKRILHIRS

## COc1ccc(C/C(=C/F)CN)cc1.Cl [Compound I-1-Z, (Z)-3-Fluoro-2-(4-methoxybenzyl)-allylamine hydrochloride]
H1 (h)
  inhibition at 10 µM: 3%
Sst (non-selective)
  Mean Value, percent inhibition of control specific binding: sst (non-selective): −4%
5-HT2C (h)
  inhibition at 10 µM: 21%
BZD (central)
  Mean Value, percent inhibition of control specific binding: BZD (central): 14%
CXCR2 (h) (IL-8B)
  inhibition at 10 µM: -8%
[1]
  Mean Value, percent inhibition of control specific binding: Ca^2+ channel (L, verapamil site) (phenylalkylamines): 14%
MT1 (h)
  inhibition at 10 µM: 0%
D2S (h)
  inhibition at 10 µM: -4%
P2Y
  Mean Value, percent inhibition of control specific binding: P2Y: −1%
CCR1 (h)
  inhibition at 10 µM: 3%
H2 (h)
  inhibition at 10 µM: 16%
β2 (h)
  inhibition at 10 µM: 6%
D3 (h)
  inhibition at 10 µM: -2%
β1 (h)
  inhibition at 10 µM: 5%
5-HT5A (h)
  inhibition at 10 µM: -3%
K^+V channel
  Mean Value, percent inhibition of control specific binding: K^+V channel: −5%
PDGF
  Mean Value, percent inhibition of control specific binding: PDGF: −14%
PACAP (PAC1) (h)
  inhibition at 10 µM: 5%

— patent US20110269811A1, “INHIBITORS OF SEMICARBAZIDE-SENSITIVE AMINE OXIDASE (SSAO) AND VAP-1 MEDIATED ADHESION USEFUL FOR TREATMENT AND PREVENTION OF DISEASES” (priority 2006, published 2011)
